Series [1] has as its system Candida albicans. The experiment in a line: Antifungal activity against Candida albicans CGMCC 2.2086 assessed as inhibition of fungal growth incubated for 48 hrs. The series is classed as functional.
A further series has as its system Candida tropicalis. The experiment in a line: Antifungal activity against Candida tropicalis CGMCC 2.1975 assessed as inhibition of fungal growth incubated for 48 hrs. Format: functional.
Series [2] concerns Candida albicans. Put plainly: Antifungal activity against Candida albicans SP3902 assessed as inhibition of fungal growth incubated for 48 hrs. The series is classed as functional.
For series [3], the system named is Candida albicans. The experiment in a line: Antifungal activity against Candida albicans SP3903 assessed as inhibition of fungal growth incubated for 48 hrs. Format: functional.
The test system of series [4] is Candida albicans. Put plainly: Antifungal activity against Fluconazole-resistant Candida albicans 58288 assessed as inhibition of fungal growth incubated for 48 hrs. The series is classed as functional.
Series [5] concerns Candida albicans. Put plainly: Antifungal activity against Candida albicans SP3876 assessed as inhibition of fungal growth incubated for 48 hrs. The series is classed as functional.
The subject of series [6] is Candida albicans. The experiment in a line: Antifungal activity against Candida albicans SP3931 assessed as inhibition of fungal growth incubated for 48 hrs. The series is classed as functional.
The test system of series [7] is Candida albicans. The experiment in a line: Antifungal activity against Candida albicans 14936 assessed as inhibition of fungal growth incubated for 48 hrs. The series is classed as functional.
The subject of series [8] is Candida albicans. The experiment in a line: Antifungal activity against Candida albicans 17546 assessed as inhibition of fungal growth incubated for 48 hrs. The series is classed as functional.
The test system of series [9] is Candida albicans. The experiment in a line: Antifungal activity against Fluconazole-resistant Candida albicans 56214 assessed as inhibition of fungal growth incubated for 48 hrs. Format: functional.
Series [10] concerns Candida albicans. The experiment in a line: Antifungal activity against Candida albicans 56452 assessed as inhibition of fungal growth incubated for 48 hrs. Format: functional.
The next series has as its system Candida parapsilosis. Put plainly: Antifungal activity against Candida parapsilosis CGMCC 2.3989 assessed as inhibition of fungal growth incubated for 48 hrs. The series is classed as functional. The settings on record: Lodderomyces parapsilosis.
Series [11] deals with Candida albicans. The experiment in a line: Antifungal activity against Candida albicans CGMCC 2.2086 infected in C57BL/6 mouse keratitis model assessed as reduction in clinical scores at 1 mg/ml administered as 10 uL eye drop every 5 mins for first 1 hr and every 30 mins for next 7 hrs. Format: functional, organism-based. The settings on record: route ou, time 8.0 hrs.
Series [12] relates to Candida albicans. Put plainly: Antifungal activity against Candida albicans CGMCC 2.2086 infected in C57BL/6 mouse keratitis model assessed as reduction in fungal cell count at 1 mg/ml administered as 10 uL eye drop every 5 mins for first 1 hr and every 30 mins for next 7 hrs. Format: functional, organism-based. The settings on record: route ou, time 8.0 hrs.
In series [13] the test system is Candida albicans. The experiment in a line: Antifungal activity against Candida albicans CGMCC 2.2086 infected in C57BL/6 mouse keratitis model assessed as reduction in mycelia in the eyes at 1 mg/ml administered as 10 uL eye drop every 5 mins for first 1 hr and every 30 mins for next 7 hrs by Schiff staining based assay. The settings on record: route ou, time 8.0 hrs. The series is classed as functional, organism-based.

Series [14] in a line: Proteolytic stability of the compound assessed as trypsin (unknown origin)-mediated drug degradation measured after 8 hrs by 16.5% tricine-SDS-PAGE analysis. Format: ADME. The settings on record: human.
Series [15] has as its system Candida albicans. The experiment in a line: Antifungal activity against Candida albicans CGMCC 2.2086 assessed as inhibition of fungal growth incubated for 2 hrs in presence of trypsin. Format: functional, organism-based.
Series [16] deals with Candida albicans. The experiment in a line: Antifungal activity against Candida albicans CGMCC 2.2086 assessed as inhibition of fungal growth incubated for 2 hrs in presence of chymotrypsin. The series is classed as functional, organism-based.
Series [17] has as its system Candida albicans. Put plainly: Antifungal activity against Candida albicans CGMCC 2.2086 assessed as inhibition of fungal growth incubated for 2 hrs in presence of protease K. Format: functional, organism-based.
Series [18] can be described thus: Proteolytic stability of the compound assessed as chymotrypsin (unknown origin)-mediated drug degradation measured after 8 hrs by 16.5% tricine-SDS-PAGE analysis. Format: ADME. The settings on record: human.
Series [19] can be described thus: Proteolytic stability of the compound assessed as protease K (unknown origin)-mediated drug degradation measured after 8 hrs by 16.5% tricine-SDS-PAGE analysis. The settings on record: human. Format: ADME.

In brackets after ≈: the same amount, converted by molar mass. Activity calls are given as the source filed them. The calls are words filed in the database; no cut-off is given here.

Turning to `C[C@@H]1[C@H](O)[C@@H](C)/C=C/C=C/C=C/C=C/C=C/C=C/C=C/[C@H](O[C@@H]2O[C@H](C)[C@@H](O)[C@H](N)[C@@H]2O)C[C@@H]2O[C@](O)(C[C@@H](O)C[C@@H](O)[C@H](O)CC[C@@H](O)C[C@@H](O)CC(=O)O[C@H]1C)C[C@H](O)[C@H]2C(=O)O` [AMPHOTERICIN B], the MIC95 in the series with Candida albicans [1], with Candida tropicalis, in the series with Candida albicans [2], in the series with Candida albicans [3], in the series on Candida albicans [4] and with Candida albicans [5] was 0.25 µM (≈ 0.231 µg/mL) each time. Also, the MIC95 with Candida albicans [6], in the series on Candida albicans [7], in the series on Candida albicans [8], with Candida albicans [9], with Candida albicans [10] and with Candida parapsilosis was 0.25 µM (≈ 0.231 µg/mL) each time. Moreover, the result in the series on Candida albicans [11] and with Candida albicans [12] was Active. Further, the Activity entry in the series with Candida albicans [13] is “Active; Mycelia In The Eyes Was Either Absent Or Minimal”.

As for `CC[C@H](C)[C@H](NC(=O)CN)C(=O)NCC(=O)N[C@@H](C)C(=O)N[C@H](C(=O)N[C@@H](CC(C)C)C(=O)N[C@@H](CCCCN)C(=O)N[C@H](C(=O)N[C@@H](CC(C)C)C(=O)N[C@H](C(=O)N[C@H](C(=O)NCC(=O)N[C@@H](CC(C)C)C(=O)N1CCC[C@H]1C(=O)N[C@@H](C)C(=O)N[C@@H](CC(C)C)C(=O)N[C@H](C(=O)N[C@@H](CO)C(=O)N[C@@H](Cc1c[nH]c2ccccc12)C(=O)N[C@H](C(=O)N[C@@H](CCCCN)C(=O)N[C@@H](CCCNC(=N)N)C(=O)N[C@@H](CCCCN)C(=O)N[C@@H](CCCNC(=N)N)C(=O)N[C@@H](CCC(N)=O)C(=O)N[C@@H](CCC(N)=O)C(N)=O)[C@@H](C)CC)[C@@H](C)CC)[C@@H](C)O)[C@@H](C)O)C(C)C)C(C)C` [MELITTIN], the MIC95 was 4 µM (≈ 11.4 µg/mL) with Candida albicans [1]; 2 µM (≈ 5.69 µg/mL) in the series on Candida tropicalis; 4 µM (≈ 11.4 µg/mL) in the series on Candida albicans [2]; 4 µM (≈ 11.4 µg/mL) with Candida albicans [3]; 4 µM (≈ 11.4 µg/mL) in the series with Candida albicans [4]; 4 µM (≈ 11.4 µg/mL) in the series with Candida albicans [5]. Moreover, the MIC95 with Candida albicans [6] was 4 µM (≈ 11.4 µg/mL); in the series with Candida albicans [7] it was 4 µM (≈ 11.4 µg/mL); in the series with Candida albicans [8], 4 µM (≈ 11.4 µg/mL); in the series on Candida albicans [9] it was 2 µM (≈ 5.69 µg/mL); in the series with Candida albicans [10], 4 µM (≈ 11.4 µg/mL); with Candida parapsilosis, 2 µM (≈ 5.69 µg/mL). Moreover, the Stability result in [14], in series [18] and in series [19] was “Unstable” throughout. In addition, the result in the series with Candida albicans [15], in the series with Candida albicans [16] and in the series with Candida albicans [17] was inactive.

These data come from ChEMBL document CHEMBL6134779, “Design of Proteolytic-Resistant Antifungal Peptides by Utilizing Minimum d-Amino Acid Ratios” (J Med Chem, 2024).
